Measurements: patent US7919620B2, “Agent for suppressing blood pressure elevation” (Coral Biotech Kabushiki Kaisha, priority 2005, dated 2011)
Marks after values point to notes of the source that are not given here.

What was measured:
Type in all cases: in vivo, rat
[1] = tested on: spontaneously hypertensive rats (SHRs); assay: Animal Experiment 1 (Example 1): systolic pressure of SHRs given sea water- or Si-added feed; settings: for Systolic pressure of SHRs: mean ± SD
Source text: In the following examples, spontaneously hypertensive rats (SHRs) were used as experimental animals. The antihypertensive effect of deep sea water was examined by comparison with tap water and surface sea water. […] The samples of the sea water used in the examples were collected by the Deep Seawater Laboratory of Okinawa at a point 3 kilometers off the coast of Kumejima island at depths of 612 m (deep sea water) and 15 m (surface sea water).
(§1) Seven-week-old male SHRs were divided into 5 groups of 6 to 7 animals. Following 1 week of acclimatization, each group was allowed to feed freely on semi-solid feed for 7 to 8 weeks. The feed given was prepared by adding 40 wt % moisture to powdered feed. To ensure that each SHR would develop hypertension, 1 wt % salt was added to the feed. The animals were allowed to freely drink tap water. Over the course of the test period, each animal was weighed and the feed consumption was measured. Blood pressure was taken from the tail vein every four days between 4 PM and 6 PM. After a 12-hour fasting period, the animals were sacrificed. Serum, liver, and kidney were weighed and subjected to analyses.
(§2) The sea water added was NaCl-removed deep sea water (DW) or NaCl-removed surface sea water (SW) prepared by dialyzation through an electrodialyzer (Asahi Kasei) until the conductivity of monovalent ions was decreased to 10 mS/cm.
(§3) The Si concentration in the semi-solid feed containing 40% moisture is defined as the amount of Si contained in 1 kg of the feed.

[2] = Animal Experiment 1 (Example 1): NaCl, water and feed consumption and body weight of SHRs
Method: as §1, §2, §3

[3] = tested on: spontaneously hypertensive rats (SHRs); assay: Animal Experiment 2 (Example 2): systolic pressure of SHRs given sea water- or Si-added feed; settings: for Systolic pressure of SHRs: mean ± SD
Method: (§4) Twenty-five 7-week-old male SHRs were divided into 5 groups of 5 animals. Four times as much Si as used in Example 1 was added to the feed given to the rats. Otherwise, the animals were tested under the same conditions as in Example 1. Two types of sea water were added to the powder feed: sea water subjected to NaCl-removing treatment by electrical dialysis and ion-exchanged water. The semi-solid feed containing 1.4 wt % NaCl and 40% moisture was prepared by adding the sea water to powdered feed.

[4] = Animal Experiment 2 (Example 2): NaCl, water and feed consumption and body weight of SHRs
Method: as §4

O.O.O.O.O.O.O.O.O.O=[Si]([O-])[O-].[Na+].[Na+] [Si, sodium metasilicate nonahydrate]
Systolic pressure of SHRs ([1]; age 7 W): 151.4 ± 9.8 mmHg | Systolic pressure of SHRs ([1]; age 8 W): 163.6 ± 7.7 mmHg | Systolic pressure of SHRs ([1]; age 9 W): 165.1 ± 9.2 mmHg | Systolic pressure of SHRs ([1]; age 10 W): 173.7 ± 12.2 mmHg | Systolic pressure of SHRs ([1]; age 11 W): 184.4 ± 11.2 mmHg | Systolic pressure of SHRs ([1]; age 12 W): 188.4 ± 10.7 mmHg | Systolic pressure of SHRs ([1]; age 13 W): 194.1 ± 10.4 mmHg | Systolic pressure of SHRs ([1]; age 14 W): 193.8 ± 11.3*^1 mmHg | Difference in magnitude of blood pressure elevation vs control group ([1]; age 14 weeks (week 6 of treatment), p<0.05): about 15 mmHg | Systolic pressure of SHRs ([1]; age 15 W): 195.2 ± 9.8*^2 mmHg | Antihypertensive effect (blood pressure suppression vs control) ([1]; end of test period (15 weeks old)): approximately 23 mmHg | Body weight ([2]; 8 weeks): 185.0 ± 12.2 g | Body weight, % of Control ([2]; 8 weeks): [98.2%] | Body weight ([2]; 15 weeks): 287.7 ± 14.7 g | Body weight, % of Control ([2]; 15 weeks): [95.7%] | Systolic pressure of SHRs ([3]; age 7 W): 157 ± 8 mmHg | Systolic pressure of SHRs ([3]; age 8 W): 166 ± 12 mmHg | Systolic pressure of SHRs ([3]; age 9 W): 168 ± 4 mmHg | Systolic pressure of SHRs ([3]; age 10 W): 167 ± 7 mmHg | Systolic pressure of SHRs ([3]; age 11 W): 172 ± 7 mmHg | Systolic pressure of SHRs ([3]; age 12 W): 179 ± 4 mmHg | Systolic pressure of SHRs ([3]; age 13 W): 179 ± 1*^1 mmHg | Systolic pressure of SHRs ([3]; age 14 W): 181 ± 3*^1 mmHg | Antihypertensive effect (difference in systolic pressure from the control) ([3]; end of test period (14 weeks old), p<0.05): approximately 10 mmHg | Body weight ([4]; 8 week): 200.3 ± 15.3 g | Body weight, % of Control ([4]; 8 week): [97.6%] | Body weight ([4]; 14 week): 303.4 ± 22.6 g | Body weight, % of Control ([4]; 14 week): [102.4%]
